Among the data in patent publication US9944678B2, “Immunomodulators” (BRISTOL-MYERS SQUIBB COMPANY, priority 2014, dated 2018) are IC50 values, retold here.

The structures appear in SMILES notation. Starred links: 1 amine or outer side, 2 acyl side, 3 side chain; linkers in the order of their positions; H or OH if unused. Positions of bridges follow the written chain, without caps; N, C: chain ends. Non-standard residues stand in square brackets, D forms with d. Residues, ends and D or L forms follow the SMILES beside them. ξ: configuration not given here. X1 = C=C[C@H]1C[C@@]1(N[*:1])C(=O)[*:2]; X4 = C[C@H]1C[C@@]1(N[*:1])C(=O)[*:2]; Bta = N[C@@H](Cc1csc2ccccc12)C(=O)O; Hyp = O=C(O)[C@@H]1C[C@@H](O)CN1; Aic = NC1(C(=O)O)Cc2ccccc2C1; NMeNle = CCCC[C@H](NC)C(=O)O; NMeA = CN[C@@H](C)C(=O)O; Ac5c = NC1(C(=O)O)CCCC1; Dab = NCC[C@H](N)C(=O)O; Dap = NC[C@H](N)C(=O)O; Ac3c = NC1(C(=O)O)CC1; Aib = CC(C)(N)C(=O)O; ξC = NC(CS)C(=O)O

For the first test, the target named is T1, PD-1-Ig binding to PD-L1-TVMV-His (PD-L1-His) (Homo sapiens, UniProt Q9NZQ7).
T1 construct: hPDL1(19-239)-TVMV-His; TVMV protease cleavage site (C); made in house; host or cells: HEK293T cells
T1 sequence (Q9NZQ7 with tags, fused parts or gaps): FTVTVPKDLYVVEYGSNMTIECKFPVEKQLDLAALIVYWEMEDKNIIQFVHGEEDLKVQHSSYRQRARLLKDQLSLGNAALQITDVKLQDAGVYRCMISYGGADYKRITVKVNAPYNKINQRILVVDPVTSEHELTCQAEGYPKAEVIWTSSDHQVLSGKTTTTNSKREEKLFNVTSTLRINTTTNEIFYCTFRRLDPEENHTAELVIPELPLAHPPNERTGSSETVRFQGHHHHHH
In words: PD-1/PD-L1 Homogenous Time-Resolved Fluorescence (HTRF) binding assay. The note with it: PD-1-Ig/PD-L1-His binding; numeric values. From the text: The ability of the macrocyclic peptides of the present disclosure to bind to PD-L1 was investigated using a PD-1/PD-L1 Homogenous Time-Resolved Fluorescence (HTRF) binding assay.
Homogenous Time-Resolved Fluorescence (HTRF) Assays of Binding of Soluble PD-1 to Soluble PD-L1. Soluble PD-1 and soluble PD-L1 refers to proteins with carboxyl-end truncations that remove the transmembrane-spanning regions and are fused to heterologous sequences, specifically the Fc portion of the human immunoglobuling G sequence (Ig) or the hexahistidine epitope tag (His). All binding studies were performed in an HTRF assay buffer consisting of dPBS supplemented with 0.1% (w/v) bovine serum albumin and 0.05% (v/v) Tween-20. For the PD-1-Ig/PD-L1-His binding assay, inhibitors were pre-incubated with PD-L1-His (10 nM final) for 15 m in 4 μl of assay buffer, followed by addition of PD-1-Ig (20 nM final) in 1 μl of assay buffer and further incubation for 15 m. PD-L1 fusion proteins from either human, cynomologous macaques, mouse, or other species were used. HTRF detection was achieved using europium crypate-labeled anti-Ig monoclonal antibody (1 nM final) and allophycocyanin (APC) labeled anti-His monoclonal antibody (20 nM final). Antibodies were diluted in HTRF detection buffer and 5 μl was dispensed on top of binding reaction. The reaction was allowed to equilibrate for 30 minutes and signal (665 nm/620 nm ratio) was obtained using an EnVision fluorometer. Additional binding assays were established between PD-1-Ig/PD-L2-His (20 and 5 nM, respectively), CD80-His/PD-L1-Ig (100 and 10 nM, respectively) and CD80-His/CTLA4-Ig (10 and 5 nM, respectively). Binding/competition studies between biotinylated Compound No. 71 and human PD-L1-His were performed as follows. Macrocyclic peptide inhibitors were pre-incubated with PD-L1-His (10 nM final) for 60 minutes in 4 μl of assay buffer followed by addition of biotinylated Compound No. 71 (0.5 nM final) in 1 μl of assay buffer. Binding was allowed to equilibrate for 30 minutes followed by addition of europium crypated labeled Streptavidin (2.5 pM final) and APC-labeled anti-His (20 nM final) in 5 μl of HTRF buffer. The reaction was allowed to equilibrate for 30 m and signal (665 nm/620 nm ratio) was obtained using an EnVision fluorometer.
Recombinant Proteins. Carboxyl-truncated human PD-1 (amino acids 25-167) with a C-terminal human Ig epitope tag [hPD-1 (25-167)-3S-IG] and human PD-L1 (amino acids 18-239) with a C-terminal His epitope tag [hPD-L1(19-239)-tobacco vein mottling virus protease cleavage site (TVMV)-His] were expressed in HEK293T cells and purified sequentially by recombinant Protein A affinity chromatography and size exclusion chromatography. Human PD-L2-His (Sino Biologicals), CD80-His (Sino Biologicals), CTLA4-Ig (RnD Systems) were all obtained through commercial sources.
Ranges are as follows: A=0.10-10 μM; B=0.01-0.099 μM; C=0.004-0.0099 μM.
(In TR-FRET formats the signal depends on donor and acceptor labels being close together.)
A word on the IC50: it is the concentration at which inhibition is half-maximal. A higher IC50 goes with lower potency. `CCCC[C@H]1C(=O)N(C)[C@@H](CCCC)C(=O)N[C@@H](CC(C)C)C(=O)N[C@H](C(=O)NCC(N)=O)CSCC(=O)N[C@@H](Cc2ccc(O)cc2)C(=O)N(C)[C@@H](C)C(=O)N[C@@H](CC(N)=O)C(=O)N2CCC[C@H]2C(=O)NC(C)(C)C(=O)N[C@@H](CC(C)C)C(=O)N2C[C@H](O)C[C@H]2C(=O)N[C@@H](Cc2c[nH]c3ccccc23)C(=O)N[C@@H](CCN)C(=O)N[C@@H](Cc2c[nH]c3ccccc23)C(=O)N1C` [Example 9011] ({CH2CO}-Y[NMeA]NP[Aib]L[Hyp]W[Dab]W[NMeNle][NMeNle]LCG-NH2; thioether N-14): the 50% inhibitory concentration (IC50) was determined as 0.02 µM.

`C=C[C@H]1C[C@]12NC(=O)[C@H](CC(N)=O)NC(=O)[C@H](C)N(C)C(=O)[C@H](Cc1ccc(O)cc1)NC(=O)CSCC(C(=O)NCC(N)=O)NC(=O)[C@H](CCCNC(=N)N)NC(=O)[C@H](CCCC)N(C)C(=O)[C@H](CCCC)N(C)C(=O)[C@H](Cc1csc3ccccc13)NC(=O)[C@H](CO)NC(=O)[C@H](Cc1c[nH]c3ccccc13)NC(=O)[C@@H]1C[C@@H](O)CN1C(=O)[C@H](CC(C)C)NC(=O)[C@H](Cc1cnc[nH]1)NC2=O` (stereo partly drawn) [Example 10002] ({CH2CO}-Y[NMeA]N[X1]HL[Hyp]WS[Bta][NMeNle][NMeNle]R[ξC]G-NH2; thioether N-14) yielded a half-maximal inhibitory concentration (IC50) of 0.2 µM.

The test is the same for the next values; noted with them: PD-1-Ig/PD-L1-His binding; values given as range classes.
`CCCC[C@H]1C(=O)N(C)[C@@H](CCCC)C(=O)N[C@@H](CC(C)C)C(=O)N[C@H](C(=O)NCC(N)=O)CSCC(=O)N[C@@H](Cc2ccc(O)cc2)C(=O)N(C)[C@@H](C)C(=O)N[C@@H](CC(N)=O)C(=O)N2CCC[C@H]2C(=O)N[C@@H](CN)C(=O)NC(C)(C)C(=O)N2C[C@H](O)C[C@H]2C(=O)N[C@@H](Cc2c[nH]c3ccccc23)C(=O)N[C@@H](CCN)C(=O)N[C@@H](Cc2c[nH]c3ccccc23)C(=O)N1C` [Example 9009] ({CH2CO}-Y[NMeA]NP[Dap][Aib][Hyp]W[Dab]W[NMeNle][NMeNle]LCG-NH2; thioether N-14) gave an IC50 of 0.1 to 10 µM.

As for `CCCC[C@H]1C(=O)N(C)[C@@H](CCCC)C(=O)N[C@@H](CC(C)C)C(=O)N[C@H](C(=O)NCC(N)=O)CSCC(=O)N[C@@H](Cc2ccc(O)cc2)C(=O)N(C)[C@@H](C)C(=O)N[C@@H](CC(N)=O)C(=O)N2CCC[C@H]2C(=O)NC2(CC2)C(=O)N[C@@H](CC(C)C)C(=O)N2C[C@H](O)C[C@H]2C(=O)N[C@@H](Cc2c[nH]c3ccccc23)C(=O)N[C@@H](CCN)C(=O)N[C@@H](Cc2c[nH]c3ccccc23)C(=O)N1C` [Example 9012] ({CH2CO}-Y[NMeA]NP[Ac3c]L[Hyp]W[Dab]W[NMeNle][NMeNle]LCG-NH2; thioether N-14), the IC50 lay within 0.01 to 0.099 µM.

Take `CCCC[C@H]1C(=O)N(C)[C@@H](CCCC)C(=O)N[C@@H](CC(C)C)C(=O)N[C@H](C(=O)NCC(N)=O)CSCC(=O)N[C@@H](Cc2ccc(O)cc2)C(=O)N(C)[C@@H](C)C(=O)NC(C)(C)C(=O)N2CCC[C@H]2C(=O)N[C@@H](CN)C(=O)N[C@@H](CC(C)C)C(=O)N2C[C@H](O)C[C@H]2C(=O)N[C@@H](Cc2c[nH]c3ccccc23)C(=O)N[C@@H](CCN)C(=O)N[C@@H](Cc2c[nH]c3ccccc23)C(=O)N1C` [Example 9013] ({CH2CO}-Y[NMeA][Aib]P[Dap]L[Hyp]W[Dab]W[NMeNle][NMeNle]LCG-NH2; thioether N-14): the IC50 is 0.1 to 10 µM.

Turning to `CCCC[C@H]1C(=O)N(C)[C@@H](CCCC)C(=O)N[C@@H](CC(C)C)C(=O)N[C@H](C(=O)NCC(N)=O)CSCC(=O)N[C@@H](Cc2ccc(O)cc2)C(=O)N(C)[C@@H](C)C(=O)NC2(CC2)C(=O)N2CCC[C@H]2C(=O)N[C@@H](CN)C(=O)N[C@@H](CC(C)C)C(=O)N2C[C@H](O)C[C@H]2C(=O)N[C@@H](Cc2c[nH]c3ccccc23)C(=O)N[C@@H](CCN)C(=O)N[C@@H](Cc2c[nH]c3ccccc23)C(=O)N1C` [Example 9014] ({CH2CO}-Y[NMeA][Ac3c]P[Dap]L[Hyp]W[Dab]W[NMeNle][NMeNle]LCG-NH2; thioether N-14), the IC50 was 0.1 to 10 µM.

`CCCC[C@H]1C(=O)N(C)[C@@H](CCCC)C(=O)NC2(CCCC2)C(=O)N[C@H](C(=O)NCC(N)=O)CSCC(=O)N[C@@H](Cc2ccc(O)cc2)C(=O)N(C)[C@@H](C)C(=O)N[C@@H](CC(N)=O)C(=O)N2CCC[C@H]2C(=O)N[C@@H](CN)C(=O)N[C@@H](CC(C)C)C(=O)N2C[C@H](O)C[C@H]2C(=O)N[C@@H](Cc2c[nH]c3ccccc23)C(=O)N[C@@H](CCN)C(=O)N[C@@H](Cc2c[nH]c3ccccc23)C(=O)N1C` [Example 9015] ({CH2CO}-Y[NMeA]NP[Dap]L[Hyp]W[Dab]W[NMeNle][NMeNle][Ac5c]CG-NH2; thioether N-14) gave an IC50 of 0.01 to 0.099 µM.

`CCCC[C@H]1C(=O)N(C)[C@@H](CCCC)C(=O)NC2(Cc3ccccc3C2)C(=O)N[C@H](C(=O)NCC(N)=O)CSCC(=O)N[C@@H](Cc2ccc(O)cc2)C(=O)N(C)[C@@H](C)C(=O)N[C@@H](CC(N)=O)C(=O)N2CCC[C@H]2C(=O)N[C@@H](CN)C(=O)N[C@@H](CC(C)C)C(=O)N2C[C@H](O)C[C@H]2C(=O)N[C@@H](Cc2c[nH]c3ccccc23)C(=O)N[C@@H](CCN)C(=O)N[C@@H](Cc2c[nH]c3ccccc23)C(=O)N1C` [Example 9016] ({CH2CO}-Y[NMeA]NP[Dap]L[Hyp]W[Dab]W[NMeNle][NMeNle][Aic]CG-NH2; thioether N-14) showed an IC50 of 0.01 to 0.099 µM.

In the case of `CCCC[C@H]1C(=O)N(C)[C@@H](CCCC)C(=O)N[C@@H](CC(C)C)C(=O)N[C@H](C(=O)NCC(N)=O)CSCC(=O)N[C@@H](Cc2ccc(O)cc2)C(=O)N(C)[C@@H](C)C(=O)N[C@@H](CC(N)=O)C(=O)N2CCC[C@H]2C(=O)NC2(CCCC2)C(=O)N[C@@H](CC(C)C)C(=O)N2C[C@H](O)C[C@H]2C(=O)N[C@@H](Cc2c[nH]c3ccccc23)C(=O)N[C@@H](CCN)C(=O)N[C@@H](Cc2c[nH]c3ccccc23)C(=O)N1C` [Example 9017] ({CH2CO}-Y[NMeA]NP[Ac5c]L[Hyp]W[Dab]W[NMeNle][NMeNle]LCG-NH2; thioether N-14), the IC50 lay within 0.01 to 0.099 µM.

Regarding `CCCC[C@H]1C(=O)N(C)[C@@H](CCCC)C(=O)N[C@@H](CC(C)C)C(=O)N[C@H](C(=O)NCC(N)=O)CSCC(=O)N[C@@H](Cc2ccc(O)cc2)C(=O)N(C)[C@@H](C)C(=O)N[C@@H](CC(N)=O)C(=O)N2CCC[C@H]2C(=O)NC2(Cc3ccccc3C2)C(=O)N[C@@H](CC(C)C)C(=O)N2C[C@H](O)C[C@H]2C(=O)N[C@@H](Cc2c[nH]c3ccccc23)C(=O)N[C@@H](CCN)C(=O)N[C@@H](Cc2c[nH]c3ccccc23)C(=O)N1C` [Example 9018] ({CH2CO}-Y[NMeA]NP[Aic]L[Hyp]W[Dab]W[NMeNle][NMeNle]LCG-NH2; thioether N-14), the IC50 is 0.01 to 0.099 µM.

The molecule `C=C[C@H]1C[C@]12NC(=O)[C@H](CC(N)=O)NC(=O)[C@H](C)N(C)C(=O)[C@H](Cc1ccc(O)cc1)NC(=O)CSCC(C(=O)NCC(N)=O)NC(=O)[C@H](CCCNC(=N)N)NC(=O)[C@H](CCCC)N(C)C(=O)[C@H](CCCC)N(C)C(=O)[C@H](Cc1csc3ccccc13)NC(=O)[C@H](CO)NC(=O)[C@H](Cc1c[nH]c3ccccc13)NC(=O)[C@@H]1CCCN1C(=O)[C@H](CC(C)C)NC(=O)[C@H](Cc1cnc[nH]1)NC2=O` (stereo partly drawn) [Example 10001] ({CH2CO}-Y[NMeA]N[X1]HLPWS[Bta][NMeNle][NMeNle]R[ξC]G-NH2; thioether N-14) yielded an IC50 of 0.1 to 10 µM.

In turn, `CCCC[C@H]1C(=O)N(C)[C@@H](CCCC)C(=O)N[C@@H](CCCNC(=N)N)C(=O)NC(C(=O)NCC(N)=O)CSCC(=O)N[C@@H](Cc2ccc(O)cc2)C(=O)N(C)[C@@H](C)C(=O)N[C@@H](CC(N)=O)C(=O)N[C@]2(C[C@@H]2C)C(=O)N[C@@H](Cc2cnc[nH]2)C(=O)N[C@@H](CC(C)C)C(=O)N2CCC[C@H]2C(=O)N[C@@H](Cc2c[nH]c3ccccc23)C(=O)N[C@@H](CO)C(=O)N[C@@H](Cc2csc3ccccc23)C(=O)N1C` (stereo partly drawn) [Example 10003] ({CH2CO}-Y[NMeA]N[X4]HLPWS[Bta][NMeNle][NMeNle]R[ξC]G-NH2; thioether N-14) came in with an IC50 of 0.1 to 10 µM.
